Laboratory results as given in publication PMC11189555, “Aryl amino acetamides prevent Plasmodium falciparum ring development via targeting the lipid-transfer protein PfSTART1” (Nature Communications, 2024).

Assays:
VPS51 (Q8I2A9) = assay: Solvent-PISA (solvent proteome profiling, DIA-MS); format: binding, Plasmodium falciparum; conditions: WEHI991_vs_DMSO, gradient G1, VPS51
LSG1 (Q8ILF2) = assay: Solvent-PISA (solvent proteome profiling, DIA-MS); format: binding, Plasmodium falciparum; conditions: WEHI991_vs_DMSO, gradient G1, LSG1
RECQ1 (Q8I2W7) = assay: Solvent-PISA (solvent proteome profiling, DIA-MS); format: binding, Plasmodium falciparum; conditions: WEHI991_vs_DMSO, gradient G1, RECQ1
Hyp1-Nluc parasites = assay: Egress, invasion & recovery assay (Nluc bioluminescence, smears); format: cell-based, Plasmodium falciparum; conditions: schizonts treated 4 h: M-833 2 µM, W-991 60 nM, ML10 30 nM, E64 10 µM, heparin 100 µg/mL; then washed off
Excerpt: To measure egress, invasion, and follow-up recovery in the presence of different compounds, we adapted the method developed in[11], using Hyp1-Nluc parasites. A full description is in the Supplementary Information. […]
and compound 4. Note that M-833 was first purchased from MolPort (MolPort -002-267-916) then made in-house at WEHI: the differences observed in EC50s across experiments are attributed to the different batches of M -833. […]
Egress, invasion & recovery assay. To measure egress, invasion and follow up recovery in the presence of different compounds, we adapted the method developed in6, using Hyp1-Nluc parasites7. These parasites episomally express the exported PEXEL protein Hyp1 (PF3D7_0113300) tagged with a NanoLuc luciferase (NLuc) and were selected with 2.5 nM WR99210 (Jacobus). Highly synchronised schizonts were obtained using ML10 (LifeArc) and sorbitol synchronisation, and Percoll-purified (the culture was gently layered over 67% Percoll (Cytiva) in RPMI, and centrifuged for 15 min at 1500 g and the schizont layer was collected and washed). In a 96-well plate, […]
cultures were set up in 4 replicates (3 replicates for the Nluc readout, and one replicate for Giemsa smears) with 1-2% parasitemia, 2% haematocrit, with the following […]
100 μg/ml heparin (Sigma) and 10 μM E64 (Sigma). The schizonts were allowed to egress and invade for 4 h at 37°C. A “background” plate without treatment was left in the fridge during this time. After 4 h, cultures were sorbitol -treated to eliminate schizonts that have not egressed. Smears were made every day for the following 3 days, and 5 μL of the resuspended cultures were taken to measure Nluc activity (to assess parasite’s presence). To measure Nluc activity, 5 μL culture were added to 45 μL NanoGlo reagent (1x Promega lysis buffer and NanoGlo reagent; Promega). The average luminescence of the background cultures was subtracted to the average luminescence of each sample. […]
The viable parasite value was then expressed in log units and parasite reduction ratio was calculated as a decrease in […]

## CC(C)(Nc1ccc(Cl)c(S(=O)(=O)N2CCOCC2)c1)C(=O)Nc1ccc(F)c(Cl)c1 [WEHI991]
VPS51 (Q8I2A9)
  Differential abundance: 0.7605
LSG1 (Q8ILF2)
  Differential abundance: 0.5417
RECQ1 (Q8I2W7)
  Differential abundance: 0.6685

## heparin [reference compound]
Hyp1-Nluc parasites
  parasite growth (Nluc bioluminescence) followed 72 h after 4 h treatment: virtually no recovery after three days
